Data reported in paper PMC7889164, “Efficient expression of a cnidarian peptide-gated ion channel in mammalian cells” (Channels, 2021).
Read-outs that look alike come from different tables or passages of the source.

Columns and labels:
HyNaC2/3/5 [1] = assay: Whole-cell patch clamp, current density, HEK 293 cells expressing HyNaC2/3/5 (native or codon-optimized); format: cell-based, Hydra magnipapillata; conditions: for current density: holding potential −70 mV, mean ± SD
Procedure: (§1) Cells were grown at 37 °C in a humidified atmosphere with 5% CO2. HEK 293 T and COS-7 cells were maintained as an adherent monolayer in Dulbecco’s modified Eagle’s medium supplemented with 10% FBS and 2 mM L-glutamine. Cells were passaged every 2–3 days.
(§2) Holding potential was −70 mV.
(§3) Statistical significance was defined as p < 0.05.

HyNaC2/3/5 [2] = conditions: Xenopus oocytes, ref [3], cited from earlier work
HyNaC2/3/5 [3] = assay: Whole-cell patch clamp, current density, COS-7 cells expressing HyNaC2/3/5 (native or codon-optimized); format: cell-based, Hydra magnipapillata; conditions: for current density: holding potential −70 mV, mean ± SD
Procedure: as §1, §2, §3

HyNaCs = conditions: ref [1–3]; cited from earlier work
Text: Electrophysiological properties of HyNaCs have been successfully characterized in Xenopus laevis oocytes [[1–3],[6]]. While expression in oocytes typically results in large current amplitudes of the foreign ion channel, expression in mammalian expression systems is better suited to study, for example, trafficking and regulation of an ion channel. In this study, we, therefore, expressed HyNaC2/3/5 ...

[4] = system: HyNaC2/3/5 (HA-tagged or untagged subunits); assay: Whole-cell current density of codon-optimized HyNaC2/3/5 with or without C-terminal HA-tags; conditions: RFamide II 1 µM, mean ± S.E.M.
Procedure: The tags were separated from the coding sequence by a flexible linker ([sequence]). Fusion was performed in a two-step PCR protocol. For HyNaC2, the forward primer was 5’-[sequence]-3’, and the reverse primers were 5’-[sequence]-3’ and 5’-[sequence]-3’. For HyNaC3, the forward primer was 5’-[sequence]-3’, and the reverse primers were 5’-[sequence]-3’ and 5’-[sequence]-3’. And for HyNaC5, the forward primer was 5’-[sequence]-3’, and the reverse primers were 5’-[sequence]-3’ and 5’-[sequence]-3’. Constructs were cloned into pcDNA3.1(-) using BamHI and BbsI (HyNaC2) or BamHI and KpnI (HyNaC3 and HyNaC5). The sequences of the constructs were confirmed by sequencing of the full coding sequence (Eurofins Genomics).
Codon optimization of HyNaC2, HyNaC3, and HyNaC5 to Homo sapiens codon usage preferences was performed by BioCat GmbH (Heidelberg, Germany). The cDNA was synthesized with a C-terminal flexible linker ([sequence]) followed by three HA-tags and cloned into pcDNA3.1(-) using the same restriction sites as above. To create the codon-optimized constructs without linkers and tags, PCR was performed to insert an additional restriction site of either BbsI (HyNaC2) or KpnI (HyNaC3 and HyNaC5) between the end of the HyNaC coding sequence and the start of the linker. The resulting constructs were digested with the respective restriction enzymes and cloned into pcDNA3.1(-). The successful removal of linkers and tags was confirmed by sequencing (Eurofins Genomics).
Cells were transfected with 0.6 µg each of HyNaC2, HyNaC3, and HyNaC5 plus 0.2 µg of GFP per 35 mm dish using calcium phosphate transfection. Approximately 48 h after transfection, the culture dish with attached cells was mounted on the stage of an inverted phase-contrast microscope (IX71, Olympus). The recording chamber was perfused with the following bath solution (in mM): NaCl 128, KCl 5.4, HEPES 10, glucose 5.5, MgCl2 1, CaCl2 2; pH was adjusted with NaOH to 7.4 at RT (22–25 °C).
Patch-clamp experiments were performed in the whole-cell configuration, using an Axon-200B amplifier (Molecular Devices; San Jose, CA, USA) and an Axon Digidata 1440 A acquisition system controlled by the Clampex 10.0 software (Molecular Devices). Signals were low pass filtered at 1 kHz and digitized at 4 kHz. Micropipettes (4–6 MΩ) were prepared from borosilicate glass capillaries with a micropipette puller (DMZ-Universal Electrode Puller; Zeitz Instruments, Martinsried, Germany) and filled with an intracellular solution containing (in mM): NaCl 10, KCl 121, HEPES 10, EGTA 5, MgCl2 2. Holding potential was −70 mV. Capacitance and series resistances were compensated electronically at 80% and digital data were stored in a compatible PC for off-line analysis using Clampfit 10.0 software (Molecular Devices).
Electrophysiological data were analyzed offline using Clampfit 10.0 (Molecular Devices). Current density was obtained by dividing the maximal current amplitude (pA) by cell capacitance (pF). Data are presented as mean ± S.D., except for data in Figure 5, which are shown as mean ± S.E.M. The concentration–response curve for RFamide-II and codon-optimized HyNaCs was fitted to a Hill function: I=Imin+ Imax−Imin/1 + X/EC50^H
Statistical analysis was done using an unpaired t-test to compare two conditions and a one-way ANOVA (GraphPad Prism 6.0) for more than two conditions. Statistical significance was defined as p < 0.05.

HyNaC2/3/5 [5] = assay: Concentration-response curve (whole-cell patch clamp), codon-optimized HyNaC2/3/5 in HEK cells; format: cell-based, Hydra magnipapillata; conditions: codon-optimized HyNaC2/3/5, HEK cells, −70 mV, pH 7.4, RT, mean ± S.D., n = 8, read-out: apparent affinity (EC50, Hill fit)
Text: as §2
where I is the current, [X] is the peptide concentration, Imin and Imax are the […] currents, respectively, EC50 is the concentration at which 50% of the maximal current is obtained, and H is the Hill coefficient (GraphPad Prism 6.0).

HyNaC2/3/5 [6] = assay: Ca^2+ imaging (Fura-2), HEK 293 cells expressing HyNaC2/3/5; format: cell-based, Hydra magnipapillata; conditions: 1 µM Hydra-RFamide II, Fura-2 340/380 nm, 6 experiments, 2 transfections, ionomycin 1 µM positive control
Procedure: For Ca^2+ imaging, cells were grown on coverslips and transfected as described for electrophysiological recordings. Approximately 48 h after transfection, cells were loaded with 2 µM of Fura-2-AM (Molecular Probes) for 30 min at 37 °C. Subsequently, the coverslips were mounted in a cell chamber and perfused with bath solution. Fura-2 was excited at 340/380 nm and the emission was recorded between 470 and 550 nm on an inverted microscope (IX71, Olympus, Chromaphor) using a sensicam CCD camera (PCO imaging). Acquisition and data analysis were performed using Till Vision real-time imaging software (Till Photonics). At the end of each experiment, a bath solution containing 1 µM ionomycin was used as a positive control.
as §3

pQWLGGRFamide [Hydra-RFamide I]
type of current elicited (HyNaC2/3/5 [1]; native HyNaC2/3/5, HEK cells, 10 µM RFamide I): sustained inward currents
current density (HyNaC2/3/5 [1]; native HyNaC2/3/5, HEK cells, 10 µM RFamide I, pH 7.4, RT (22–25 °C), n = 12): 42 ± 10 pA/pF
response in oocytes (HyNaC2/3/5 [2]; 10 µM Hydra-RFamide I): maximal response
current amplitude compared with Hydra-RFamide II (HyNaC2/3/5 [3]; codon-optimized HyNaC2/3/5, COS-7 cells, text: 1 µM Hydra-RFamide I (Figure 3B legend: 10 µM), n = 10, p = 0.87 (unpaired t-test)): comparable current amplitudes
current density (HyNaC2/3/5 [3]; native HyNaC2/3/5, COS-7 cells, 10 µM RFamide I, pH 7.4, RT (22–25 °C), n = 12, p < 0.001 vs HEK): 5 ± 2 pA/pF
activation of HyNaCs (HyNaCs): directly activated

pQWFNGRFamide [Hydra-RFamide II, neuropeptide of the Hydra nervous system]
type of current elicited (HyNaC2/3/5 [1]; codon-optimized HyNaC2/3/5, HEK cells, 1 µM Hydra-RFamide II): sustained inward currents
current density (HyNaC2/3/5 [1]; codon-optimized HyNaC2/3/5, HEK cells, 1 µM Hydra-RFamide II, pH 7.4, RT, n = 15, p < 0.001 vs native): 113 ± 9 pA/pF
response in oocytes (HyNaC2/3/5 [2]; 1 µM Hydra-RFamide II): maximal response
current density ([4]; HyNaC2 carried the HA-tag, n = 7–8, p < 0.05 vs untagged): 49 ± 9 pA/pF
current density ([4]; HyNaC3 carried the HA-tag, n = 7–8, p < 0.05 vs untagged): 57 ± 8 pA/pF
current density ([4]; HyNaC5 carried the HA-tag, n = 7–8, p < 0.05 vs untagged): 50 ± 9 pA/pF
current density ([4]; all subunits carrying an HA-tag, n = 7, p < 0.0001): 22 ± 7 pA/pF
current density ([4]; no subunit carried the tag, n = 7–8): 84 ± 9 pA/pF
type of current elicited (HyNaC2/3/5 [3]; codon-optimized HyNaC2/3/5, COS-7 cells, 1 µM Hydra-RFamide II): sustained inward currents
current density (HyNaC2/3/5 [3]; codon-optimized HyNaC2/3/5, COS-7 cells, 1 µM Hydra-RFamide II, pH 7.4, RT, n = 10, p < 0.001 vs native): 17 ± 9 pA/pF
current amplitude compared with Hydra-RFamide I (HyNaC2/3/5 [3]; codon-optimized HyNaC2/3/5, COS-7 cells, text: 10 µM Hydra-RFamide II (Figure 3B legend: 1 µM), n = 10, p = 0.87 (unpaired t-test)): comparable current amplitudes
current density (HyNaC2/3/5 [3]; native HyNaC2/3/5, COS-7 cells, text: 1 µM Hydra-RFamide II (Figure 3 legend: native trace 10 µM RFamide I), n = 12): 2 ± 3 pA/pF
EC50 (HyNaC2/3/5 [5]): 140 ± 30 nM
activation of HyNaCs (HyNaCs): directly activated
intracellular Ca^2+ signals (HyNaC2/3/5 [6]; HEK 293 cells expressing codon-optimized HyNaC2/3/5, n = 48 cells, p < 0.001 vs native): robust intracellular Ca^2+ signals
intracellular Ca^2+ increase (HyNaC2/3/5 [6]; HEK 293 cells expressing native HyNaC2/3/5, n = 36 cells): hardly increased intracellular Ca^2+ above background
